Here are results for eleven compounds from PMC7064771, “Repurposed Drugs That Block the Gonococcus-Complement Receptor 3 Interaction Can Prevent and Cure Gonococcal Infection of Primary Human Cervical Epithelial Cells” (mBio, 2020).

One assay has as its target T1, G2 peptide (Homo sapiens, UniProt P11215).
T1 construct: corresponds to amino acids Arg197 to Pro211 of human CD11b
The assay can be described thus: SPR of glycans over immobilized biotin-AhxG2-streptavidin complex. The format is binding. The settings on record: for KD, G2 Peptide: synthetic glycans over biotin-Ahx-labeled G2 peptide complexed with streptavidin, NCDI = no concentration-dependent interaction. The procedure: To assess the kinetics of the selected peptides, biotinylated versions of each peptide were synthesized. This enabled immobilization via streptavidin onto Series S CM5 sensor chips. Purified biotin-AhxG2 (G2 peptide with a six-carbon spacer linked to biotin) (Table S1), was incubated with streptavidin (Sigma, Castle Hill, NSW, Australia) for 2 h on ice at a 12:1 molar ratio of peptide to protein. Unreacted peptide was removed using a 10-kDa-molecular-weight-cutoff size exclusion column (EMD Millipore, Bayswater, VIC, Australia). Semi-native SDS-PAGE analysis was used to confirm peptide binding to streptavidin. To this end, streptavidin-peptide complexes were added to nonreducing NuPAGE sample buffer (Life Technologies, Scoresby, VIC, Australia). To ensure that peptide-streptavidin complexes were not denatured, heat was not applied before loading onto SDS-polyacrylamide 4% to 12% gradient gels (Life Technologies). A streptavidin-biotin complex was used as a reference control for the molecular weight shift that could be attributed to the peptide. Serially diluted glycans (1 μM to 0.0625 μM) were flowed over sensor chips. Other aspects of SPR analysis were as described above.

The target of the next assay is T2, human rI-domain (Homo sapiens, UniProt P11215).
T2 construct: Recombinant human and mouse I-domain proteins were made and purified as previously described; made in house
The assay can be described thus: Surface plasmon resonance, immobilized human rI-domain. The format is binding. On the procedure: (§1) SPR analyses were performed using a Biacore S200 system (GE Healthcare Life Sciences, Parramatta, NSW, Australia). Samples were analyzed at 25°C in phosphate-buffered saline (PBS) at a flow rate of 10 μl/min and by using single-cycle kinetics. Human rI-domain, mouse rI-domain, and human rCR3 were immobilized onto separate cells of a Series S CM5 sensor chip using an NHS capture kit (both from GE Healthcare Life Sciences) for purified pilin experiments. For experiments in which pilin-glycan-like structures were examined, human rI-domain and rCR3 were immobilized onto separate cells of a CM5 chip. A blank immobilization was used as a control/reference on all chips. MS11 wild-type and MS11 pglA pilin were serially diluted from 2 μM to 0.125 μM in PBS. Glycans (Dextra Laboratories, Reading, UK) (Table 2), resembling the gonococcal Gal(α1-3)diNAcBac pilin-linked glycan, were serially diluted from 2 μM to 0.0078 μM in PBS. Affinity data points were taken at 15 s after injection to avoid an artefactual signal resulting from bulk transport. SPR sensorgrams were analyzed using Biacore Evaluation software (GE Healthcare Life Sciences).

In assay [1] the target is T3, human rCR3 (integrin αMβ2) (Homo sapiens, UniProt P05107+P11215).
T3 construct: purchased R&D Systems
Put plainly: Surface plasmon resonance, immobilized human rCR3. The format is binding. On the procedure:
as §1
Background: SPR reads the build-up and loss of mass on a sensor chip optically.

For assay [2], the target named is T4, human rCR3 (integrin αMβ2) (Homo sapiens, UniProt P11215).
T4 construct: purchased R&D Systems
The assay can be described thus: Surface plasmon resonance, immobilized human rCR3. Type of assay: binding. On the procedure:
as §1

Assay [3] deals with N. gonorrhoeae adherence to CHO-CR3 cells. Put plainly: Fluorometric adherence assay, CHO-CR3 cells. The format is cell-based, Chinese hamster. The settings on record: 1-h infection with GFP-expressing N. gonorrhoeae, competitor added simultaneously. The procedure: (§2) Fluorometric adherence assays were performed essentially as described previously ([36]). In brief, N. gonorrhoeae MS11 gfp was used to challenge (1 h) Pex or CHO cells simultaneously with peptide or drug competitor. Infected (devoid of peptide or drug) and uninfected (with peptide, drug, or dimethyl sulfoxide [DMSO] vehicle) control cell assays were treated in parallel with competitive peptide/drug inhibition assays. Fluorescence (485 nm excitation, 528 nm emission) intensity, corresponding to bacterial adherence, was recorded using a Synergy HT multimode microplate reader (BioTek Instruments, Winooski, VT, USA). Blank wells, devoid of Pex or CHO cells, were inoculated with bacteria and served as a control for nonspecific binding. Each assay was performed in triplicates on 3 separate occasions. Peptides used are described in Table S1. A nonparametric analysis of variance (ANOVA) was used to determine the statistical significance of the calculated mean of bacterial adherence.

Assay [4] relates to N. gonorrhoeae adherence to Pex cells. The assay can be described thus: Fluorometric adherence assay, Pex cells. The format is cell-based, human. Particulars: 1-h infection with GFP-expressing N. gonorrhoeae, competitor added simultaneously. The procedure: as §2
[5] abbreviates: synthetic glycans, NCDI = no interaction at any concentration between 0.0078 μM and 2 μM, read-out: KD, rI-domain.
Where [6] appears, read: synthetic glycans, NCDI = no interaction at any concentration between 0.0078 μM and 2 μM, read-out: KD, rCR3.
The mark [7] stands for this setting: synthetic glycans, NCDI = no interaction at any concentration between 0.0078 μM and 2 μM.

Like-named read-outs stand apart in the source and are kept apart here.

T3 sequence (P05107 23-700, one chain of several): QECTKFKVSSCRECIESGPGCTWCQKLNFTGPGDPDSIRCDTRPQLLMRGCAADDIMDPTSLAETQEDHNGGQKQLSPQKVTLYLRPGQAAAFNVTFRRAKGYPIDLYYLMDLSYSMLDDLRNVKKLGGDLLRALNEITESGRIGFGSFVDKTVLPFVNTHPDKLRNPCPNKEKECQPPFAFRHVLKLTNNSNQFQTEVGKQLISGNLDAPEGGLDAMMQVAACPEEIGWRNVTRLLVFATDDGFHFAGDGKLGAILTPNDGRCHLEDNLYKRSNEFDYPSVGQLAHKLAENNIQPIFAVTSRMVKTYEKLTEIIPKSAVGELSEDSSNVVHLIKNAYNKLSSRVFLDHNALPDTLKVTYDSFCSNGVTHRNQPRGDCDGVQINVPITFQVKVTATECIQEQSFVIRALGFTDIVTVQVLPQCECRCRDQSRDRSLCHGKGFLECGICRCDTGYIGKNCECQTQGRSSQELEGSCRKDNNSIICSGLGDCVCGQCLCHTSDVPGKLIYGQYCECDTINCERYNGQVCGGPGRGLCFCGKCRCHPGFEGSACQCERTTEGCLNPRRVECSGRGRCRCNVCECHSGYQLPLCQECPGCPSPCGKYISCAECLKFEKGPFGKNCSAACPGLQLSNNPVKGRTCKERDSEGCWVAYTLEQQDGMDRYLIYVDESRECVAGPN

The term Kd denotes the constant that tells how readily two partners part at equilibrium. Consider `OCC1OC(OC2C(O)C(O)OC(CO)C2O)C(O)C(O)C1O` (stereo not shown) [Galactobiose], for which the equilibrium dissociation constant (Kd) at G2 peptide was 174 ± 45.1 nM; on human rI-domain it was 229 ± 73.1 nM; in assay [1], 68.7 ± 1.75 nM.

In the case of `OC[C@H]1O[C@@H](O[C@H]2[C@H](O)[C@@H](O)[C@H](O)O[C@@H]2CO)[C@H](O)[C@@H](O)[C@H]1O` [Lactose], the results for the equilibrium dissociation constant (Kd) (on human rI-domain (setting [5]); in assay [1] (setting [6])) were 117 ± 13.3 nM and 138 ± 33.7 nM, respectively.

As to `CC(=O)NC1C(O)OC(CO)C(OC2OC(CO)C(O)C(OC3OC(CO)C(O)C(O)C3O)C2O)C1O` (stereo not shown) [Linear B-2 Trisaccharide], the equilibrium dissociation constant (Kd) on human rI-domain (setting [5]) amounted to 293 ± 13.1 nM; in assay [1] (setting [6]), 44.8 ± 18.1 nM.

Regarding `CO[C@H]1O[C@H](CO)[C@H](O)[C@H](O)[C@H]1O` [Methyl-α-D-galactose], the Kd at G2 peptide amounted to 118 ± 11.8 nM; at human rI-domain (setting [5]), 269 ± 85.1 nM; in assay [1] (setting [6]), 56.5 ± 19.8 nM.

Consider `CC(=O)NC1C(O)OC(CO)C(OC2OC(CO)C(OC3OC(CO)C(O)C(O)C3O)C(O)C2O)C1O` (stereo not shown) [P1 Antigen], for which the dissociation constant Kd at human rI-domain (setting [5]) was 202 ± 48.7 nM; in assay [1] (setting [6]), 48.3 ± 14.2 nM.

For `OC[C@H]1O[C@@](CO)(O[C@H]2O[C@H](CO)[C@@H](O)[C@H](O)[C@H]2O)[C@@H](O)[C@@H]1O` [Sucrose], the “KD, G2 Peptide” value on G2 peptide is on record as “NCDI”; on G2 peptide (listed as sucrose), “no concentration-dependent interaction”. Moreover, the “KD, rI-domain” value at human rI-domain (setting [7]) is “did not bind and NCDI”. In addition, in assay [2] (setting [7]), the “KD, rCR3” value was “did not bind and NCDI”.

With `OCC1OC(OC2C(O)C(CO)OC(OC3C(CO)OC(OC4C(O)C(O)OC(CO)C4O)C(O)C3O)C2O)C(O)C(O)C1O` (stereo not drawn) [α1-3,β1-4,α1-3 Galactotetraose], the Kd was found to be 320 ± 67.2 nM on human rI-domain (setting [5]) and 26.2 ± 9.18 nM in assay [2] (setting [6]).

Turning to `OC[C@H]1O[C@@H](O[C@H]2[C@H](O)[C@@H](O)[C@@H](O)O[C@@H]2CO)[C@H](O)[C@@H](O)[C@H]1O` [αLactose], the results for the Kd (on human rI-domain (setting [5]); in assay [1] (setting [6])) were 202 ± 54.4 nM and 79.8 ± 15 nM, respectively.

“H-CATFTAPGRTSTFSF-OH [P2, H-CATFTAPGRTSTFSF-OH]”: the “Gonococcal adherence to CHO-CR3 cells (fluorescence)” value in assay [3] was “nonblocking”. Also, the “Gonococcal adherence to Pex cells (fluorescence)” value in assay [4] was “nonblocking”.

With H-CNNPSSTVPHNVDFH-OH [P1], the “Gonococcal adherence to CHO-CR3 cells (fluorescence)” value in assay [3] is listed as “nonblocking”. The “Gonococcal adherence to Pex cells (fluorescence)” value in assay [4] is “nonblocking”.

For the compound “MS11 wild type: N. gonorrhoeae MS11 pilin modified with the Gal(α1-3)diNAcBac disaccharide glycan”, the Kd in assay [2] (purified pilin 0.125-2 μM, NCDI = no concentration-dependent interaction (no binding of ≤2 μM), read-out: KD, Human CR3) is 907 ± 43.8 nM.
